# Results published in US20110105515A1, “TARGETING THE ONCOPROTEIN NUCLEOPHOSMIN” (President and Fellows of Harvard College, priority 2007, published 2011).
# Experiments:
# CCRF-CEM = experiment: cells; settings: Homo sapiens, 48 h
# NCI-H226 = experiment: cells; settings: Homo sapiens, NCI-H226, 48 h; for CC50: read-out: LC50
# COLO 205 = experiment: cells; settings: Homo sapiens, COLO 205, 48 h; for CC50: read-out: LC50
# HCT-116 = experiment: cells; settings: Homo sapiens, HCT-116, 48 h; for CC50: read-out: LC50
# SF-295 = experiment: cells; settings: Homo sapiens, SF-295, 48 h; for CC50: read-out: LC50
# SNB-19 = experiment: cells; settings: Homo sapiens, SNB-19, 48 h; for CC50: read-out: LC50
# MALME-3M = experiment: cells; settings: Homo sapiens, 48 h; for CC50: read-out: LC50
# SK-MEL-5 = experiment: cells; settings: Homo sapiens, SK-MEL-5, 48 h; for CC50: read-out: LC50
# A498 = experiment: cells; settings: Homo sapiens, A498, 48 h; for CC50: read-out: LC50
# DU-145 = experiment: cells; settings: Homo sapiens, DU-145, 48 h; for CC50: read-out: LC50
# MDA-MB-435 = experiment: cells; settings: Homo sapiens, MDA-MB-435, 48 h; for CC50: read-out: LC50
# MDA-MB-468 = experiment: cells; settings: Homo sapiens, MDA-MB-468, 48 h; for CC50: read-out: LC50
# CAKI-1 = experiment: NCI 60 cell lines, SRB assay: CAKI-1; type: cell-based, human; settings: CAKI-1 (Renal Cancer), 48 hours
# Method: The human tumor cell lines were grown in RPMI 1640 medium containing 5% fetal bovine serum (FBS) and 2 mM L-glutamine. The cells were inoculated into 96 well microtiter plates in 100 μL volumes at plating densities ranging from 5000 to 40000 cells/well depending on the doubling time of each individual cell line. After cell inoculation, the microtiter plates were incubated at 37° C., 5% CO2, 95% air, and 100% relative humidity for 24 hours prior to addition of the test compound. The following day, two plates of each cell line were fixed in situ with TCA to represent a measurement of cell population for each cell line at the time of sample addition (Tz). Each of the test compounds was dissolved in dimethyl sulfoxide at 400-times the desired final maximum test concentration, and the resulting solutions were stored frozen prior to use. At the time of sample addition, an aliquot of frozen concentrate was thawed and diluted to twice the desired final maximum test concentration with complete medium containing 50 μg/mL gentamicin. Additional four 10-fold serial dilutions were prepared to provide a total of five sample concentrations plus control. Aliquots of 100 μL of these different concentrations were added to the appropriate microtiter wells already containing 100 μL of medium, making up the required final sample concentrations. […] Bound stain was subsequently solubilized with 10 mM trizma base, and the absorbance was read on an automated plate reader at a wavelength of 515 nm. […] Using the seven absorbance measurements [time zero (Tz), control growth (C), and test growth in the presence of drug at the five concentration levels (Ti)], the percentage growth was calculated at each of the sample concentration levels. […] The test compound concentration resulting in total growth inhibition was calculated from Ti=Tz. […] In the event when the effect was not reached or was exceeded, the value for the respective parameter was expressed as greater or less than the maximum or minimum concentration tested.
# SK-MEL-2 = experiment: cells; settings: Homo sapiens, SK-MEL-2, 48 h
# IGROV1 = experiment: cells; settings: Homo sapiens, IGROV-1, 48 h
# RXF 393 = experiment: cells; settings: Homo sapiens, RXF 393, 48 h
# PC-3 = experiment: cells; settings: Homo sapiens, PC-3, 48 h
SMILES,GI50 (CCRF-CEM) [nM],GI50 (NCI-H226) [nM],CC50 (NCI-H226) [nM],GI50 (COLO 205) [nM],CC50 (COLO 205) [nM],GI50 (HCT-116) [nM],CC50 (HCT-116) [nM],GI50 (SF-295) [nM],CC50 (SF-295) [nM],GI50 (SNB-19) [nM],CC50 (SNB-19) [nM],GI50 (MALME-3M) [nM],CC50 (MALME-3M) [nM],GI50 (SK-MEL-5) [nM],CC50 (SK-MEL-5) [nM],GI50 (A498) [nM],CC50 (A498) [nM],GI50 (DU-145) [nM],CC50 (DU-145) [nM],GI50 (MDA-MB-435) [nM],also measured
Cc1cc(C)cc(-c2ccc3c(c2)[N+]([O-])=C2C3=C[C@@]34NC(=O)C5(CCCN5C3=O)CC4C2(C)C)c1 (stereo partly shown) [Biphenyl Analogue],105,199,2920,128,526,186,764,392,3970,238,3090,41.7,1500,166,629,285,3830,280,3660,166,CC50 (MDA-MB-435): 1410 nM; GI50 (MDA-MB-468): 160 nM; CC50 (MDA-MB-468): 3030 nM
CN(C)c1cccc2c(S(=O)(=O)NCCCCCCCCCCOc3ccc4c(c3)[N+]([O-])=C3C4=C[C@@]45NC(=O)C6(CCCN6C4=O)CC5C3(C)C)cccc12 (stereo partly shown) [Dansyl Analogue],–,–,–,–,–,–,–,–,–,–,–,–,–,–,–,–,–,–,–,–,GI50 (CAKI-1): 426 nM; TGI (CAKI-1): 2790 nM; CC50 (CAKI-1; read-out: LC50 (the source's name)): 20800 nM
[2H]On1c2c(c3ccc4c(c31)C=CC(C)(C)O4)C(OC([2H])([2H])[2H])[C@@]13NC(=O)C4(CCCN4C1=O)CC3C2(C)C (stereo partly shown) [Deuterated Methanol Adduct],185,391,4120,336,4450,744,4440,1280,5810,1110,4810,174,5090,1410,5230,1020,4820,1750,5590,395,CC50 (CCRF-CEM; read-out: LC50): 4600 nM; GI50 (SK-MEL-2): 901 nM; CC50 (SK-MEL-2; read-out: LC50): 5390 nM; GI50 (IGROV1): 743 nM; CC50 (IGROV1; read-out: LC50): 4680 nM; GI50 (RXF 393): 283 nM; CC50 (RXF 393; read-out: LC50): 2050 nM; GI50 (PC-3): 619 nM; CC50 (PC-3; read-out: LC50): 5120 nM; CC50 (MDA-MB-435): 4720 nM; GI50 (MDA-MB-468): 292 nM; CC50 (MDA-MB-468): 6960 nM
